# Assay results reported in patent US20200253877A1, “GEMCABENE, PHARMACEUTICALLY ACCEPTABLE SALTS THEREOF, COMPOSITIONS THEREOF AND METHODS OF USE THEREFOR” (NEUROBO PHARMACEUTICALS, INC., priority 2018, published 2020).
# Experiments:
# [1] = Aqueous solubility of gemcabene calcium salt forms over 24 hours (HPLC concentration, XRPD form); type: physicochemical; conditions: approximately 25° C.
# Protocol: To each vial, approximately 3 mL to 4 mL water were added and the samples were mixed at ambient temperature (approximately 25° C.) for approximately 24 hours. […] From each vial, samples of the slurries were taken after 1, 4, and 24 hours, which were separated by centrifugation. The solids were separated by centrifugation and analyzed by XRPD for solid form and by HPLC for concentration.
# [2] = Stability study of gemcabene calcium salt forms (XRPD form, HPLC/CAD purity); type: physicochemical
# Protocol: The stability studies were carried out using storage conditions at a) 40° C. and 75% relative humidity (RH), b) at 80° C. and c) at ambient temperature (approximately 22° C.). After 7 days and 14 days, the samples were removed from the relevant storage conditions and initially analyzed by XRPD to identify any form changes. The samples were then analyzed by HPLC/CAD (high-performance liquid chromatography equipped with a charged aerosol detector) for purity, with all solid purity values given on a w/w % basis.
# [3] = system: hepatic mRNA expression in STAM™ mice; experiment: Murine STAM model of NASH-HCC: hepatic gene expression by quantitative RT-PCR; type: in vivo, mouse
# Protocol: A study was performed to evaluate the efficacy of gemcabene calcium salt hydrate Crystal Form 1 having a PSD90 of 52 μm as measured by laser light diffraction, in treating non-alcoholic steatosis hepatitis (NASH) in the murine STAM™ model of NASH-HCC.
# Briefly, two-day old neonatal C57BL/6 male mice were administered low-dose streptozotocin (STZ), and were subsequently fed a HFC diet from 4 weeks of age. In this model, the mice typically develop liver steatosis and diabetes, reaching steatohepatitis within 3 weeks, followed by cirrhosis within 8 weeks, and carcinoma within 16 weeks. In the current study, mice were administered daily oral gemcabene calcium salt hydrate Crystal Form 1 starting at week 6 of age and were sacrificed at week 9. […] These STAM™ groups were orally administered from week 6 one of the following: water-vehicle, gemcabene calcium salt hydrate Crystal Form 1 at 30, 100 and 300 mg/kg daily, or telmisartan ([…]®) 10 mg/kg daily. […] All groups were sacrificed at week 9. Vehicle, gemcabene calcium salt hydrate Crystal Form 1, or telmisartan were administered by oral gavage once daily.
# Various gene expression markers of liver metabolism were evaluated by Real-Time PCR (RT-PCR) in all mouse groups. Total RNA was extracted from liver samples using RNAiso (Takara Bio, Japan) according to the manufacturer's instructions. […] of RNA was reverse-transcribed using a reaction mixture containing 4.4 mM MgCl2 (F. Hoffmann-La Roche, Switzerland), 40 U RNase inhibitor (Toyobo, Japan), 0.5 mM dNTP (Promega, USA), 6.28 μM random hexamer (Promega), 5×first strand buffer (Promega), 10 mM dithiothreitol (Invitrogen, USA) and 200 U MMLV-RT (Invitrogen) in a final volume of 20 μL. The reaction was carried out for 1 hour at 37° C., followed by 5 minutes at 99° C. Real-time PCR was performed using real-time PCR DICE and SYBR premix Taq (Takara Bio). To calculate the relative mRNA expression level, the expression of each gene was normalized to that of reference gene 36B4 (gene symbol: RplpO). Information of PCR-primer sets is described in Tables 37A-37C. Statistical analyses were performed using the Bonferroni Multiple Comparison Test on GraphPad Prism 6 (GraphPad Software Inc., USA). P values <0.05 were considered statistically significant. Results are expressed as mean±SD.
# In order to calculate the relative mRNA expression level, the expression of each gene was normalized to that of the reference gene 36B4 (gene symbol: RplpO). The gene expression levels were measured by quantitative RT-PCR. Results were normalized with values for the vehicle-treated normal group. […] Gemcabene calcium salt hydrate Crystal Form 1 (PSD90=52 μm) modulated the mRNA expression of many hepatic genes that play a significant role in the liver homeostasis and injury.
# [4] = gemcabene Form 1 100 mg/kg, telmisartan 10 mg/kg
# [5] = vs Vehicle in NASH group, gemcabene Form 1 30 mg/kg
# [6] = vs Vehicle in NASH group, gemcabene Form 1 100 and 300 mg/kg
# [7] = vs Vehicle in NASH group, gemcabene Form 1 100 and 300 mg/kg, telmisartan 10 mg/kg
smiles,measurement,setting,value
"CC(C)(CCCCOCCCCC(C)(C)C(=O)O)C(=O)O.[Ca] [6-(5-Carboxy-5-methyl-hexyloxy)-2,2-dimethylhexanoic acid calcium]",change in polymorphic form during the test period (XRPD),"[1]; slurry in water, 24 hours",no change in polymorphic form
same,change in concentration (HPLC) during the experiment,"[1]; slurry in water, sampled 1, 4, 24 hours",small increase
same,solubility at 1 h,"[1]; thermodynamic from solid, water, 1 h, read-out: Conc. (aqueous solubility)",96.2 mg/mL
same,solubility at 4 h,"[1]; thermodynamic from solid, water, 4 h, read-out: Conc. (aqueous solubility)",98.3 mg/mL
same,solubility at 24 h,"[1]; thermodynamic from solid, water, 24 h, read-out: Conc. (aqueous solubility)",99.5 mg/mL
same,Form (XRPD) of solid in water slurry,"[1]; water, 1 h",Form 1
same,Form (XRPD) of solid in water slurry,"[1]; water, 4 h",Form 1
same,Form (XRPD) of solid in water slurry,"[1]; water, 24 h",Form 1
same,change in form (XRPD),"[2]; 2-week study, 40° C./75% RH, 80° C. and ambient",No change in the form
same,Form (XRPD),"[2]; 40° C./75% RH, 1 Week",Form 1
same,Purity,"[2]; 40° C./75% RH, 1 Week",80.8%
same,Form (XRPD),"[2]; 40° C./75% RH, 2 Weeks",Form 1
same,Purity,"[2]; 40° C./75% RH, 2 Weeks",84.2%
same,Form (XRPD),"[2]; 80° C., 1 Week",Form 1
same,Purity,"[2]; 80° C., 1 Week",80.6%
same,Form (XRPD),"[2]; 80° C., 2 Weeks",Form 1
same,Purity,"[2]; 80° C., 2 Weeks",83.9%
same,Form (XRPD),"[2]; Ambient, 1 Week",Form 1
same,Purity,"[2]; Ambient, 1 Week",80.7%
same,Form (XRPD),"[2]; Ambient, 2 Weeks",Form 1
same,Purity,"[2]; Ambient, 2 Weeks",84.6%
same,purity (HPLC/CAD) compared to the starting form,"[2]; after 2 weeks storage, all 3 storage conditions",drop in purity
same,Starting Purity,"[2]; before storage, HPLC/CAD, w/w %",87.5%
same,LDL receptor gene expression,[3]; STAM mice,no effect
same,hepatic ApoC-III mRNA,[3]; STAM mice,significantly downregulated
same,"MMP-2 mRNA expression (relative, mean±SD)",[3]; gemcabene Form 1 100 mg/kg,0.5±0.2
same,"NF-κB mRNA expression (relative, mean±SD)",[3]; gemcabene Form 1 100 mg/kg,0.9±0.1
same,"Sulf-2 mRNA expression (relative, mean±SD)",[3]; gemcabene Form 1 100 mg/kg,3.8±0.7
same,"TIMP-1 mRNA expression (relative, mean±SD)",[3]; gemcabene Form 1 100 mg/kg,3.8±1.6
same,"TNF-α mRNA expression (relative to vehicle-treated normal group, mean±SD)",[3]; gemcabene Form 1 100 mg/kg,2.0±0.8
same,"ACC-1 mRNA expression (relative, mean±SD)",[3]; [4],0.7±0.1
same,"ADH-4 mRNA expression (relative, mean±SD)",[3]; [4],0.6±0.1
same,"CCR2 mRNA expression (relative, mean±SD)",[3]; [4],1.6±0.4
same,"CCR5 mRNA expression (relative, mean±SD)",[3]; [4],1.4±0.3
same,"CRP mRNA levels (relative, mean±SD)",[3]; [4],0.6±0.1
same,"MCP-1 mRNA expression (relative, mean±SD)",[3]; [4],1.7±0.7
same,"MIP-1β mRNA levels (relative, mean±SD)",[3]; [4],2.3±0.9
same,"ADH-4 mRNA expression (relative, mean±SD)",[3]; gemcabene Form 1 300 mg/kg,0.5±0.1
same,"CCR2 mRNA expression (relative, mean±SD)",[3]; gemcabene Form 1 300 mg/kg,1.7±0.7
same,"CCR5 mRNA expression (relative, mean±SD)",[3]; gemcabene Form 1 300 mg/kg,1.3±0.3
same,"CRP mRNA levels (relative, mean±SD)",[3]; gemcabene Form 1 300 mg/kg,0.5±0.1
same,"MCP-1 mRNA expression (relative, mean±SD)",[3]; gemcabene Form 1 300 mg/kg,1.6±0.7
same,"MIP-1β mRNA levels (relative, mean±SD)",[3]; gemcabene Form 1 300 mg/kg,2.8±1.4
same,"MMP-2 mRNA expression (relative, mean±SD)",[3]; gemcabene Form 1 300 mg/kg,0.9±0.2
same,"NF-κB mRNA expression (relative, mean±SD)",[3]; gemcabene Form 1 300 mg/kg,0.8±0.1
same,"Sulf-2 mRNA expression (relative, mean±SD)",[3]; gemcabene Form 1 300 mg/kg,3.3±0.9
same,"TIMP-1 mRNA expression (relative, mean±SD)",[3]; gemcabene Form 1 300 mg/kg,4.4±2.1
same,"TNF-α mRNA expression (relative to vehicle-treated normal group, mean±SD)",[3]; gemcabene Form 1 300 mg/kg,1.9±0.7
same,ANGPTL4 mRNA expression level,[3]; [5],no significant difference
same,IL-6 mRNA expression level,[3]; [5],no significant difference
same,Fetuin-A mRNA expression level,"[3]; vs Vehicle in NASH group, gemcabene Form 1 100 mg/kg",significant down-regulation
same,SCD mRNA expression level,"[3]; vs Vehicle in NASH group, gemcabene Form 1 300 mg/kg",significant up-regulation
same,hepatic LPL mRNA expression levels,"[3]; vs Vehicle in NASH group, gemcabene Form 1 30, 100 and 300 mg/kg, telmisartan 10 mg/kg",significant up-regulations
same,ANGPTL3 mRNA expression levels,[3]; [6],significant down-regulations
same,CXCL1/KC mRNA expression levels,[3]; [6],marked down-regulation
same,ANGPTL4 mRNA expression levels,[3]; [7],significant down-regulations
same,IL-6 mRNA expression level,[3]; [7],significant down-regulations
